# Test results taken from patent US8822503B2, “2-pyridone compounds” (Taisho Pharmaceutical Co., Ltd, priority 2009, dated 2014).
# Target: T1, human liver GK (Homo sapiens, UniProt P35557)
# T1 construct: GST (glutathione S-transferase) (N); made in house; host or cells: E. coli
# T1 sequence (P35557 1-466 isoform P35557-2): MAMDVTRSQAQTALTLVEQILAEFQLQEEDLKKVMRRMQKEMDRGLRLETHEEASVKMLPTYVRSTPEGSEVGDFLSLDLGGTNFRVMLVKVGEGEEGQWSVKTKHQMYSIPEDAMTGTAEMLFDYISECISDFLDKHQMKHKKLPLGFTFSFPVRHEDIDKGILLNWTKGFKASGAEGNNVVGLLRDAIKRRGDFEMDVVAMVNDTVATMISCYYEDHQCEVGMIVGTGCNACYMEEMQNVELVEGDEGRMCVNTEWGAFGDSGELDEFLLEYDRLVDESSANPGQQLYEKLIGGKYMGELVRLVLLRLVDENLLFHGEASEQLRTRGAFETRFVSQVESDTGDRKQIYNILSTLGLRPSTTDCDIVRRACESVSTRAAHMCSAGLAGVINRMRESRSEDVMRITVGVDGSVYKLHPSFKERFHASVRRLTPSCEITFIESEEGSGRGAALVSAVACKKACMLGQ
# Test: GK activation test
# Assay type: biochemical
# Conditions: test compound concentration needed to activate 50% of maximum activation ability; 4 mM 14C-labeled glucose, 2 mM ATP, room temperature, 20 minutes
# Outline: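 GST-tagged human liver GK from E. coli (0.24 μg/well) with 4 mM 14C-glucose, 2 mM ATP in Hepes-KOH pH 7.1, KCl, MgCl2, DTT, 1% DMSO, 20 min room temperature. Labeled glucose 6-phosphate captured on anion resin, eluted and counted. EC50 = concentration giving half of maximal activation.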
row,EC50 [µM],SMILES
1,3 to 10,"CC(=O)NC/C=C(\c1ccc(C(C)(C)C)cc1)c1ccc(Cl)c(=O)[nH]1 [Example 6-35, N-[(2E)-3-(4-tert-Butylphenyl)-3-(5-chloro-6-oxo-1,6-dihydropyridin-2-yl)prop-2-en-1-yl]acetamide]"
2,0.5 to 3,"Cc1c[nH]n(C/C=C(\c2ccc(C(C)(C)C)cc2)c2ccc(Cl)c(=O)[nH]2)c1=O [Example 6-37, 6-[(1E)-1-(4-tert-Butylphenyl)-3-(4-methyl-5-oxo-2,5-dihydro-1H-pyrazol-1-yl)prop-1-en-1-yl]-3-chloropyridin-2(1H)-one]"
3,3 to 10,"O=c1[nH]c(C(OC2CCCC2)c2ccc(S(=O)(=O)C3CC3)cc2)ccc1C(F)(F)F (stereo not drawn) [Example 7-2, 6-{(Cyclopentyloxy)[4-(cyclopropylsulfonyl)phenyl]methyl}-3-(trifluoromethyl)pyridin-2(1H)-one]"
4,0.01 to 0.5,"O=c1[nH]c(C(Oc2ccc(F)cc2F)c2ccc(S(=O)(=O)C3CC3)cc2)ccc1C1CC1 (stereo not drawn) [Example 7-3, 3-Cyclopropyl-6-[[4-(cyclopropylsulfonyl)phenyl](2,4-difluorophenoxy)methyl]pyridin-2(1H)-one]"
5,0.5 to 3,"CC(C)(C)c1ccc(C(SC2CCCC2)c2ccc(Cl)c(=O)[nH]2)cc1 (stereo not drawn) [Example 7-4, 6-[(4-tert-Butylphenyl)(cyclopentylsulfanyl)methyl]-3-chloropyridin-2(1H)-one]"
6,3 to 10,"CC(C)(C)c1ccc(C(NC2CCCC2)c2ccc(Cl)c(=O)[nH]2)cc1 (stereo not drawn) [Example 7-5, 6-[(4-tert-Butylphenyl)(cyclopentylamino)methyl]-3-chloropyridin-2(1H)-one]"
